# Experimental data reported in patent US9840501B2, “Morpholin-pyridine derivatives” (Hoffmann-La Roche Inc., priority 2014, dated 2017).
# Legend:
# rat TAAR1 = rat TAAR1 (Rattus norvegicus (Rat), UniProt Q923Y9); assay: Radioligand binding assay on rat TAAR1; details: rat TAAR1, membranes of stably transfected HEK-293 cells; second value of the pair; read-out: Ki (μM) mouse/rat: rat
# Method: (§1) For the construction of expression plasmids the coding sequences of human, rat and mouse TAAR 1 were amplified from genomic DNA essentially as described by Lindemann et al.. The Expand High Fidelity PCR System (Roche Diagnostics) was used with 1.5 mM Mg^2+ and purified PCR products were cloned into pCR2.1-TOPO cloning vector (Invitrogen) following the instructions of the manufacturer. PCR products were subcloned into the pIRESneo2 vector (BD Clontech, Palo Alto, Calif.), and expression vectors were sequence verified before introduction in cell lines.
# (§2) For the generation of stably transfected cell lines HEK293 cells were transfected with the pIRESneo2 expression plasmids containing the TAAR coding sequences (described above) with Lipofectamine 2000 (Invitrogen) according to the instructions of the manufacturer, and 24 hrs post transfection the culture medium was supplemented with 1 mg/ml G418 (Sigma, Buchs, Switzerland). After a culture period of about 10 d clones were isolated, expanded and tested for responsiveness to trace amines (all compounds purchased from Sigma) with the cAMP Biotrak Enzyme immunoassay (EIA) System (Amersham) following the non-acetylation EIA procedure provided by the manufacturer.
# Radioligand Binding Assay on Rat TAAR1
# (§3) Membrane Preparation and Radioligand Binding.
# (§4) Cells were released from culture flasks using trypsin/EDTA, harvested, washed twice with ice-cold PBS (without Ca^2+ and Mg^2+), pelleted at 1′000 rpm for 5 min at 4° C., frozen and stored at −80° C. Frozen pellets were suspended in 20 ml HEPES-NaOH (20 mM, pH 7.4) containing 10 mM EDTA and homogenized with a Polytron (PT 6000, Kinematica) at 14′000 rpm for 20 s. The homogenate was centrifuged at 48′000×g for 30 min at 4° C. Subsequently, the supernatant was removed and discarded, and the pellet resuspended in 20 ml HEPES-NaOH (20 mM, pH 7.4) containing 0.1 mM EDTA using the Polytron (20 s at 14′000 rpm). This procedure was repeated and the final pellet resuspended in HEPES-NaOH containing 0.1 mM EDTA and homogenized using the Polytron. Typically, aliquots of 2 ml membrane portions were stored at −80° C. With each new membrane batch the dissociation constant (Kd) was determined via a saturation curve. […] Nonspecific binding was defined as the amount of ^3[H]—(S)-4-[(ethyl-phenyl-amino)-methyl]-4,5-dihydro-oxazol-2-ylamine bound in the presence of 10 μM unlabeled ligand. All compounds were tested at a broad range of concentrations (10 pM to 10 μM) in duplicates. […] The 96 deep well plates were incubated for 1 hr at 4° C. Incubations were terminated by rapid filtration through Unifilter-96 plates (Packard Instrument Company) and glass filters GF/C (Perkin Elmer) presoaked for 1 hr in polyethylenimine (0.3%) and washed 3 times with 1 ml of cold binding buffer. After addition of 45 μl of Microscint 40 (PerkinElmer) the Unifilter-96 plate was sealed and after 1 hr the radioactivity counted using a TopCount Microplate Scintillation Counter (Packard Instrument Company).
# mouse TAAR1 = mouse TAAR1 (Mus musculus (Mouse), UniProt Q923Y8); assay: Radioligand binding assay on mouse TAAR1; details: mouse TAAR1, membranes of stably transfected HEK-293 cells; first value of the pair; read-out: Ki (μM) mouse/rat: mouse
# Method: as §1, §2
# Radioligand Binding Assay on Mouse TAAR1
# as §3
# as §4, with “1,000” for “1′000”, “48,000×g” for “48′000×g”
# rat TAAR1, sequence (Q923Y9 whole entry): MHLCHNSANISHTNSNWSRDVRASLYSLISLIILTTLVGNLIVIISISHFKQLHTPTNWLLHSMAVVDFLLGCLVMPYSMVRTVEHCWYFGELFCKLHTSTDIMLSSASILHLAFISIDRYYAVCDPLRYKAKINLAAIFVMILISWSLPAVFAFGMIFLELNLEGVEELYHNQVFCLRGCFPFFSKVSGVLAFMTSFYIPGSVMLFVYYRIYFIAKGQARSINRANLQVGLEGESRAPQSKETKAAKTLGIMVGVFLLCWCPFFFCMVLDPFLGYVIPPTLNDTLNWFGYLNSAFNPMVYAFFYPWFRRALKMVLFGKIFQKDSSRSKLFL
# mouse TAAR1, sequence (Q923Y8 whole entry): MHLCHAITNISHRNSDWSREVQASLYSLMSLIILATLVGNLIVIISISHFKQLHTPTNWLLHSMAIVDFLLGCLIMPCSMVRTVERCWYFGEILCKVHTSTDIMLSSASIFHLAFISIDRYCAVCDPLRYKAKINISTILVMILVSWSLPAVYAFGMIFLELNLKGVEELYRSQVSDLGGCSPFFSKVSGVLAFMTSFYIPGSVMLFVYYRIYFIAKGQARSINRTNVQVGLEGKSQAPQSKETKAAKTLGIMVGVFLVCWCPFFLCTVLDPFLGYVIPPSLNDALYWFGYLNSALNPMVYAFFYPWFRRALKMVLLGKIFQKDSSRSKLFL
SMILES,Ki (rat TAAR1),Ki (mouse TAAR1)
"O=C(Nc1cnc(C2CNCCO2)nc1)Nc1cccc(Cl)c1 (racemic) [Example 73, (RS)-1-(3-Chlorophenyl)-3-(2-morpholin-2-ylpyrimidin-5-yl)urea]",1.96 µM,0.0059 µM
"Clc1ccc(Nc2cnc(C3CNCCO3)c(Cl)c2)nc1 (racemic) [Example 102, (RS)-5-Chloro-N-(5-chloro-2-pyridyl)-6-morpholin-2-yl-pyridin-3-amine]",0.461 µM,0.178 µM
"Cc1cc(Nc2ccc(C(F)(F)F)cn2)cnc1C1CNCCO1 (racemic) [Example 104, (RS)-5-Methyl-6-morpholin-2-yl-N-[5-(trifluoromethyl)-2-pyridyl]pyridin-3-amine]",0.455 µM,0.0837 µM
"O=C(Nc1cnc(C2CNCCO2)c(Cl)c1)c1ccnc(C(F)(F)F)c1 (racemic) [Example 107, (RS)—N-(5-Chloro-6-morpholin-2-yl-3-pyridyl)-2-(trifluoromethyl)pyridine-4-carboxamide]",0.371 µM,0.143 µM
"Fc1cc(Nc2ccc(C(F)(F)F)cn2)cnc1C1CNCCO1 (racemic) [Example 111, (RS)-5-Fluoro-6-morpholin-2-yl-N-[5-(trifluoromethyl)-2-pyridyl]pyridin-3-amine]",0.176 µM,0.0128 µM
"O=C(Nc1cnc(C2CNCCO2)c(F)c1)c1ccnc(C(F)(F)F)c1 (racemic) [Example 113, (RS)—N-(5-Fluoro-6-morpholin-2-yl-3-pyridyl)-2-(trifluoromethyl)pyridine-4-carboxamide]",1.31 µM,0.0557 µM
"Cc1cc(NC(=O)c2ccnc(C(F)(F)F)c2)cnc1C1CNCCO1 (racemic) [Example 117, (RS)—N-(5-Methyl-6-morpholin-2-yl-3-pyridyl)-2-(trifluoromethyl)pyridine-4-carboxamide]",1.41 µM,0.464 µM
"CCCc1n[nH]c(C(=O)Nc2cnc(C3CNCCO3)c(C)c2)c1Cl (racemic) [Example 118, (RS)-4-Chloro-N-(5-methyl-6-morpholin-2-yl-3-pyridyl)-3-propyl-1H-pyrazole-5-carboxamide]",0.597 µM,0.0468 µM
"Cc1cc(NC(=O)Nc2cccc(Cl)c2)cnc1C1CNCCO1 (racemic) [Example 119, (RS)-1-(3-Chlorophenyl)-3-(5-methyl-6-morpholin-2-yl-3-pyridyl)urea]",0.243 µM,0.0533 µM
"Brc1ccc(Nc2ccc([C@@H]3CNCCO3)nc2)nc1 [Example 21, N-(5-Bromo-2-pyridyl)-6-[(2S)-morpholin-2-yl]pyridin-3-amine]",0.0324 µM,0.002 µM
"FC(F)(F)c1ccc(Nc2ccc([C@@H]3CNCCO3)nc2)cn1 [Example 22, 6-[(2S)-Morpholin-2-yl]-N-[6-(trifluoromethyl)-3-pyridyl]pyridin-3-amine]",0.247 µM,0.0126 µM
"FC(F)(F)c1ccnc(Nc2ccc([C@@H]3CNCCO3)nc2)c1 [Example 23, 6-[(2S)-Morpholin-2-yl]-N-[4-(trifluoromethyl)-2-pyridyl]pyridin-3-amine]",0.154 µM,0.0124 µM
"Clc1ccc(Nc2ccc([C@H]3CNCCO3)nc2)cc1 [Example 24, N-(4-Chlorophenyl)-6-[(2R)-morpholin-2-yl]pyridin-3-amine]",0.182 µM,0.0124 µM
"Clc1ccc(Nc2ccc([C@H]3CNCCO3)nc2)nc1 [Example 26, N-(5-Chloro-2-pyridyl)-6-[(2R)-morpholin-2-yl]pyridin-3-amine]",0.424 µM,0.0118 µM
"FC(F)(F)c1ccc(Nc2ccc([C@H]3CNCCO3)nc2)cn1 [Example 27, 6-[(2R)-Morpholin-2-yl]-N-[6-(trifluoromethyl)-3-pyridyl]pyridin-3-amine]",1.1 µM,0.074 µM
"FC(F)(F)c1ccnc(Nc2ccc([C@H]3CNCCO3)nc2)c1 [Example 28, 6-[(2R)-Morpholin-2-yl]-N-[4-(trifluoromethyl)-2-pyridyl]pyridin-3-amine]",0.606 µM,0.11 µM
"O=C(Nc1ccc([C@@H]2CNCCO2)nc1)c1ccc(Cl)cc1 [Example 31, 4-Chloro-N-[6-[(2S)-morpholin-2-yl]-3-pyridyl]benzamide]",0.102 µM,0.003 µM
"O=C(Nc1ccc([C@@H]2CNCCO2)nc1)c1ccc(C(F)(F)F)cc1 [Example 33, N-[6-[(2S)-Morpholin-2-yl]-3-pyridyl]-4-(trifluoromethyl)benzamide]",0.052 µM,0.0056 µM

# Second part, the molecule after the results:
Ki (rat TAAR1),Ki (mouse TAAR1),SMILES
0.019 µM,0.0543 µM,"O=C(Nc1cccc(Cl)c1)Nc1cnc(C2CNCCO2)c(Cl)c1 (racemic) [Example 109, (RS)-1-(5-Chloro-6-morpholin-2-yl-3-pyridyl)-3-(3-chlorophenyl)urea]"
0.0286 µM,0.0102 µM,"O=C(Nc1cccc(Cl)c1)Nc1cnc(C2CNCCO2)c(F)c1 (racemic) [Example 112, (RS)-1-(3-Chlorophenyl)-3-(5-fluoro-6-morpholin-2-yl-3-pyridyl)urea]"
0.0221 µM,0.0048 µM,"CCCc1n[nH]c(C(=O)Nc2cnc(C3CNCCO3)c(F)c2)c1Cl (racemic) [Example 114, (RS)-4-Chloro-N-(5-fluoro-6-morpholin-2-yl-3-pyridyl)-3-propyl-1H-pyrazole-5-carboxamide]"
0.043 µM,0.0015 µM,"Clc1ccc(Nc2ccc([C@@H]3CNCCO3)nc2)cc1 [Example 18, N-(4-Chlorophenyl)-6-[(2S)-morpholin-2-yl]pyridin-3-amine]"
0.0751 µM,0.0019 µM,"Clc1ccc(Nc2ccc([C@@H]3CNCCO3)nc2)nc1 [Example 20, N-(5-Chloro-2-pyridyl)-6-[(2S)-morpholin-2-yl]pyridin-3-amine]"
0.0103 µM,0.0035 µM,"FC(F)(F)c1ccc(Nc2ccc([C@@H]3CNCCO3)nc2)nc1 [Example 29, N-[6-[(2S)-Morpholin-2-yl]-3-pyridyl]-5-(trifluoromethyl)pyridin-2-amine]"
0.0208 µM,0.0034 µM,"FC(F)(F)c1cccc(Nc2ccc([C@@H]3CNCCO3)nc2)n1 [Example 30, N-[6-[(2S)-Morpholin-2-yl]-3-pyridyl]-6-(trifluoromethyl)pyridin-2-amine]"
0.0107 µM,0.0056 µM,"O=C(Nc1ccc([C@@H]2CNCCO2)nc1)c1cccc(C(F)(F)F)c1 [Example 35, N-[6-[(2S)-Morpholin-2-yl]-3-pyridyl]-3-(trifluoromethyl)benzamide]"
0.0278 µM,0.0066 µM,"O=C(Nc1ccc([C@@H]2CNCCO2)nc1)c1ccc(OCC(F)(F)F)nc1 [Example 36, N-[6-[(2S)-Morpholin-2-yl]-3-pyridyl]-6-(2,2,2-trifluoroethoxy)pyridine-3-carboxamide]"
